≈ marks a conversion by molar mass, not a printed value.
Columns and labels:
[1] = test system: Human Foreskin Fibroblast (HFF); test: Cytotoxicity assay with WST-1 on HFF; assay type: cell-based; conditions: for Toxicity* (highest concentration tested that does not show toxicity to HFF): WST assay, second value of cell
Procedure: PBS Sol/Toxicity pH7.4 refers to solubility of the compound in Phosphate Buffered Saline (PBS) at pH7.4. […] Tachy/Brady IC50 was determined in studies in which cultures of parasites in HFF were treated with varying concentrations of the compound and there was 50% inhibition of the replication (number) of parasites. Parasites were RH-YFP expressing tachyzoites (Tachy) and EGS (Brady) strains. Studies of effects of inhibitors on HFF or on T.gondii tachyzoites were performed with triplicate wells in at least two biological replicate experiments. Studies of effects on bradyzoites were performed at least twice in at least two biological replicate experiments. Compounds with much less inhibition of mammalian than T. gondii cytochrome bc in the saffarine enzyme assay (indicated by **) provide potential to further develop compounds, if unanticipated toxicity occurs from JAG21.
Cytotoxicity Assays in parallel with RH Strain T.gondii in vitro studies. Toxicity assays used WST-1 cell proliferation reagent (Roche) as in Fomovska et al. (2012). HFF were grown on a flat, clear-bottomed, black 96-well plate. Confluent HFF were treated with inhibitory compounds at concentrations of 10 μM and 50 μM. Compounds were diluted in IMDM-C, and 20 μL were added to each designated well, with triplicates for each condition. A gradient with 2 fold-decreasing concentrations of DMSO from 10% to 0% in colorless, translucent IMDM-C was used as a control. The plate was incubated for 72 hours at 37° C. 10 μL WST-1 reagent (Roche) were added to each well. Cells were incubated for 30-60 minutes. Absorbance was read using a fluorimeter at 420 nm. A higher degree of color change (and absorbance) indicated mitochondrial activity and cell viability.
Because T. gondii grows inside cells, if a compound were toxic to host HFF then it would make the compound appear to be spuriously effective (Fomovska et al. 2012; Fomovska et al. 2012a), when in actuality only toxicity for the host cell would be measured. Cytotoxicity to HFF was therefore assessed for all compounds at 10 μM. Results of this experiment are in Table 1, toxicity column. A two-way ANOVA and subsequent pairwise comparison found none of the differences in absorbance, compared to the media-DMSO vehicle controls, to be statistically significant (p>0.05). Most of these compounds are not toxic at 10 μM (the limit of solubility) and that cytotoxicity to cells can be attributed to DMSO in the solution, not the compound.

[2] = test system: T. gondii mitochondrial membrane potential (cytochrome bc); test: Mitochondrial membrane potential by the safranine method (T. gondii, compared with HFF); assay type: cell-based, Toxoplasma gondii; conditions: for Effect on T. gondii mitochondrial membrane potential: doses as high as 4 μM
Procedure: T.gondii and HFF Mitochondrial Membrane Potential Measurements—the mitochondrial membrane potential was measured by the safranine method according to Vercesi et al, 1998). Freshly egressed T. gondii tachyzoites were filtered and washed twice with intracellular buffer (125 mM sucrose, 65 mM KCl, 10 mM HEPES-KOH buffer, pH 7.2, 1 mM MgCl2 and 2.5 mM potassium phosphate). After washing, the parasites were resuspended in the same buffer at 10^9/ml. An aliquot of 50 μL of this suspension was added to a cuvette containing Safranin 0, 2.5 μM and Succinate 1 mM in final volume of 2 mL of the intracellular buffer. The fluorescence was measured with a Hitachi 7000 spectrofluorometer with setting Ex. 495/Em. 586. Once the baseline fluorescence is testable, 30 μM digitonin was added to permeabilize the parasites. 85 seconds after permeabilization, the THQ derivatives, dissolved in DMSO, were added. 5 μM of FCCP (Carbonyl cyanide-4-(trifluoromethoxy) phenylhydrazone) was used as an uncoupler reference for calculations and its effect was considered 100%. Similar conditions for measuring the mitochondrial potential of mammalian cells were used with the following changes: the mammalian cells were re-suspended at 10^8/ml. 50 μl of mammalian cells was also used for each run in a cuvette with […]. The substrate used for mammalian cells was 5 mM glutamate and 5 mM malate. A higher concentration of digitonin (50 μM) was used to permeabilize the mammalian cells. The compounds were added at about 400 seconds after permeabilization. Each experiment was repeated at least three times in duplicates. Statistical analysis, unpaired student t test, was performed using GraphPad Prism 8.0 (GraphPad Software, Inc., San Diego, Calif.).
Mitochondrial membrane potential measurements were performed with permeabilized T.gondii tachyzoites in suspension using safranin O, which loads into polarized membranes. T. gondii tachyzoites were permeabilized with digitonin to allow the mitochondrial substrate succinate to cross the membrane and energize the mitochondrion. The fluorescence of safranin O, which loads into energized mitochondria was used to measure the membrane potential. The energized state of the mitochondrion is observed by a decrease in fluorescence (FIGS. 3A,C,E). Trifluoromethoxy carbonylcyanide phenylhydrazone (FCCP) was used to depolarize the membrane, which causes the fluorescence to go up as shown in FIG. 3A. JAG21 depolarized the membrane potential even at concentrations as low as 2 nM (FIG. 3C,D). JAG21 and Atovaquone had similar effects on the mitochondrial membrane potential (FIG. 3D). […] The effect of these THQ compounds against the T. gondii mitochondrial membrane potential was greater than the effect on the human foreskin fibroblast membrane potential (FIG. 3E,F). […]

[3] = Kinetic/aqueous solubility in PBS pH 7.4; assay type: physicochemical; conditions: for solubility: amorphous compounds; for PBS Sol pH7.4: solubility in Phosphate Buffered Saline pH 7.4, first value of cell
Procedure: PBS Sol/Toxicity pH7.4 refers to solubility of the compound in Phosphate Buffered Saline (PBS) at pH7.4. […] Parasites were RH-YFP expressing tachyzoites (Tachy) and EGS (Brady) strains. Studies of effects of inhibitors on HFF or on T.gondii tachyzoites were performed with triplicate wells in at least two biological replicate experiments. Studies of effects on bradyzoites were performed at least twice in at least two biological replicate experiments. Compounds with much less inhibition of mammalian than T. gondii cytochrome bc in the saffarine enzyme assay (indicated by **) provide potential to further develop compounds, if unanticipated toxicity occurs from JAG21.
(§1) Structure Activity Relationship (SAR) and comparison of effect on T.gondii and HFF enzyme activity. […] The MDCK-MDR1 Permeability Assay was also performed. […] These were measured by Chem Partners.

[4] = molecular target: T1, P. falciparum bc1 complex cytochrome c reductase (Pfbc1) (Plasmodium falciparum, UniProt Q02768); test: Pfbc1 native assay (cytochrome c reduction by parasite extract); assay type: biochemical; conditions: atovaquone 1 μM positive control, mean±S.D., N=4
T1 construct: Parasite extract was then prepared by disruption with a sonicating probe; endogenous in cells; host or cells: P. falciparum 3D7 blood-stage parasites freed by saponin, sonicated extract
T1 sequence (Q02768 1-376): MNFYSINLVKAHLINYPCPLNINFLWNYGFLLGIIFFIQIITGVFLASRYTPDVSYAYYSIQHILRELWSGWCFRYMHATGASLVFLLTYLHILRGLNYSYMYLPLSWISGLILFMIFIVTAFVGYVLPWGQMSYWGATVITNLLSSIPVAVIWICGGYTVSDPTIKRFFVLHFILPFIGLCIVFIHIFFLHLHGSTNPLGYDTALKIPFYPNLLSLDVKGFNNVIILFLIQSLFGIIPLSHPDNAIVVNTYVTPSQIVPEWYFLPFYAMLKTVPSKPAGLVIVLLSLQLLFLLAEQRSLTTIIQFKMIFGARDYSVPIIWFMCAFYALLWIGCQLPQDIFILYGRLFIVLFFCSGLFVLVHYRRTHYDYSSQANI
Procedure: Enzyme assays. P. falciparum 3D7 strain were obtained from the Liverpool School of Tropical Medicine. Protease cocktail inhibitor was obtained from Roche. Bradford protein assay dye reagent was obtained from Bio-Rad. All other reagents were obtained from Sigma-Aldrich. Decylubiquinol was produced as per Fisher et al. (2009). In brief, 25 mg of decylubiquinone were dissolved in 400 μl of nitrogen-saturated hexane. An equal volume of aqueous 1 M sodium dithionite was added, and the mixture vortexed until colorless. […] Concentrations of decylubiquinol was determined spectrophotometrically on a Cary 300 Bio UV/visible spectrophotometer (Varian, UK) from absolute spectra, using ε288-320=8.1 mM-1·cm^−1. […]
The protocol for the preparation of parasite extract was adapted from Fisher et al. Free parasites were prepared from infected erythrocytes pooled from five T75 flasks, by adding 5 volumes of 0.15% (w/v) saponin in phosphate-buffered saline (137 mM NaCl, 2.7 mM KCl, 1.76 mM K2HPO4, 8.0 mM Na2HPO4, 5.5 mM D-glucose, pH 7.4) for 5 min, followed by three washes by centrifugation in RPMI containing HEPES (25 mM), and a final resuspension in potassium phosphate buffer (50 mM K2HPO4, 50 mM KH2PO4, 2 mM EDTA, pH7.4) containing a protease inhibitor cocktail (Complete Mini; Roche). […] The protein concentration of the parasite extract was determined by Bradford protein assay (Bio-Rad). […]

[5] = Metabolic stability in mouse liver microsomes; assay type: in vitro ADME; conditions: predicted half-life in mouse liver microsomes; no unit in table (101 minutes for JAG021)
[6] = test system: P-glycoprotein (MDR1, ABCB1); test: in vitro; assay type: in vitro ADME, canine; conditions: dog, MDCK-MDR1
Procedure: as §1

SMILES	Toxicity* (highest concentration tested that does not show toxicity to HFF) [1]	Effect on T. gondii mitochondrial membrane potential [2]	PBS Sol pH7.4 [3] [μM]	T1/2 (M) [5]	also measured
Cc1[nH]c2c(c(=O)c1-c1ccc(Oc3ccc(C(=O)O)cc3)cc1)CCCC2 [JAG046]	ND/5 μM	almost no effect	–	–	–
Cc1[nH]c2c(c(=O)c1-c1ccc(Oc3cccc(C(=O)O)c3)cc1)CCCC2 [JAG047]	ND/5 μM	almost no effect	–	–	–
Cc1[nH]c2c(c(=O)c1-c1ccc(Oc3ccc(Cl)cc3)cc1)CCCC2 [JAG050]	–	–	16.41	–	Toxicity to human cells in the in vitro model (HFF) [1]: not toxic; Concentration depolarizing the T. gondii mitochondrial membrane potential ([2]; permeabilized tachyzoites, safranin O): ≥ 200 nM; solubility [3]: 16 µM (≈ 5.85 µg/mL)
O=c1c2c([nH]c(CO)c1-c1ccc(Oc3ccc(OC(F)(F)F)cc3)cc1)CCCC2 [JAG099]	–	–	4.05	–	inhibition at 1 µM [4]: 81.3 ± 6%
Cc1[nH]c2c(c(=O)c1-c1ccc(Oc3ccc(OC(F)(F)F)cc3)cc1)CCC(C(F)(F)F)C2 (centres unmarked) [JAG162]	–	–	0.02	144.43	–
Cc1[nH]c2c(c(=O)c1-c1ccc(Oc3ccccc3)cc1)CCCC2 [MJM170]	–	–	1.97	20.97	Papp [6]: > 10 ×10⁻⁶ cm/s; efflux ratio [6]: < 1.5; solubility ([3]; phosphate buffered saline, pH 7.4, aqueous buffer, kinetic from dmso stock): 2 µM (≈ 0.663 µg/mL)

From patent publication US20230181564A1, “Potent Tetrahydroquinolone Eliminates Apicomplexan Parasites” (The University of Chicago, priority 2020, published 2023)
